From BindingDB's records for doi:10.1016/j.bmcl.2011.03.068 (The University of Utah, 2011)

Target: Autotaxin (Homo sapiens, UniProt Q13822)
Assay: Inhibition of human recombinant ATX lysophospholipase activity expressed in insect sf9 cells using FS-3 fluorogenic substrate preincubated for 10 mins measured after 5 and 25 mins by fluorometric analysis

Structure (SMILES) | Ki
CCCCCCCCCC(=O)Nc1ccc(C(O)P(=O)(O)O)cc1 (configuration not stated) | 24 nM
CCCCCCCCCCCCCC(=O)Nc1ccc(C(O)P(=O)(O)O)cc1 (configuration not stated) | 24 nM
